Data on 9 compounds can be found in publication PMC11243256 (Molecules, 2024).

Read-outs that look alike come from different tables or passages of the source.

Test in all cases: microscale thermophoresis
Type in all cases: binding
On the technique in general: Microscale thermophoresis detects binding through changes in fluorescence in a small temperature gradient.

One assay has as its target T1, PYL2 (Arabidopsis thaliana, UniProt O80992).
T1 construct: NT-647-NHS labelled
T1 sequence (O80992 1-190): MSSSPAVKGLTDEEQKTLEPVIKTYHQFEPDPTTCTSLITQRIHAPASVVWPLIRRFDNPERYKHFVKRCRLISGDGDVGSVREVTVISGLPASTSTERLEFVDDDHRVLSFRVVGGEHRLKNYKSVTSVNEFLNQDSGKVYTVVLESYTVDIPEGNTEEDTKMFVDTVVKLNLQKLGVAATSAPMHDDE
An excerpt: microscale thermophoresis on PYL2

Another assay has as its target T2, PYR1 (Arabidopsis thaliana, UniProt O49686).
T2 construct: NT-647-NHS labelled; 'dimer PYR1' in the docking section
T2 sequence (O49686 1-191): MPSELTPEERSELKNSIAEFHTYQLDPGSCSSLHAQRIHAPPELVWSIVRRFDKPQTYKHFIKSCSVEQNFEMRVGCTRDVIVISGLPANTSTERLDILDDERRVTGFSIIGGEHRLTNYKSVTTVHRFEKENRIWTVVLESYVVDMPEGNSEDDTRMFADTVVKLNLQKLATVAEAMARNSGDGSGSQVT
An excerpt:
microscale thermophoresis on PYR1

A further assay concerns the target T3, PYL10 (Arabidopsis thaliana, UniProt Q8H1R0).
T3 construct: NT-647-NHS labelled; 'monomer PYL10' in the docking section
T3 sequence (Q8H1R0 1-183): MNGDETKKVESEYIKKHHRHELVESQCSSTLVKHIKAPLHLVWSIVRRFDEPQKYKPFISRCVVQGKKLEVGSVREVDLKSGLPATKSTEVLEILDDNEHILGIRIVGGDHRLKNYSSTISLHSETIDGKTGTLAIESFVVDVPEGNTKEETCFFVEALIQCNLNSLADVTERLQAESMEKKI
From the text: microscale thermophoresis on PYL10

The target of another assay is T4, PYL6 (Arabidopsis thaliana, UniProt Q8S8E3).
T4 construct: NT-647-NHS labelled
T4 sequence (Q8S8E3 1-215): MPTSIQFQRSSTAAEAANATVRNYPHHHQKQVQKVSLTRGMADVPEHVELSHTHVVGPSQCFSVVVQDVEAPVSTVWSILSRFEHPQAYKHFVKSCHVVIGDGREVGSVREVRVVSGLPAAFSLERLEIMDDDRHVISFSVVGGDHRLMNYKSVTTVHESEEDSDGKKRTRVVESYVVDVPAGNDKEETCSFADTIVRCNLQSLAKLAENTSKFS
An excerpt:
microscale thermophoresis on PYL6

For another assay, the target named is T5, PYL3 (Arabidopsis thaliana, UniProt Q9SSM7).
T5 construct: NT-647-NHS labelled
T5 sequence (Q9SSM7 1-209): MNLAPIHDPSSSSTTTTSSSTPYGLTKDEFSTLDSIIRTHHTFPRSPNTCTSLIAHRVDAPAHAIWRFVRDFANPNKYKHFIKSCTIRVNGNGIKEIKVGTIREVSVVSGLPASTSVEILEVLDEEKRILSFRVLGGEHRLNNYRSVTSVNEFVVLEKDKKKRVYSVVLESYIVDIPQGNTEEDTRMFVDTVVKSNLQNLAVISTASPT

The mark [1] stands for this setting: PBS, NT-647-NHS-labelled receptor.

One may read the Kd as the equilibrium constant for the complex coming apart. In the case of `CCCCCCOc1ccc2c(c1)C(=O)C(C)(C)CC2(O)/C=C/C(C)=C\C(=O)O` (centres unmarked) [APA6], the Kd was determined as 2910 ± 170 nM on PYL2; 121 ± 13.6 µM at PYR1; 44.9 ± 8.09 µM at PYL10; 1620 ± 170 nM at PYL6; 4.09 ± 0.65 µM on PYL3.
Turning to `CC(=C/C(=O)O)/C=C/C1(O)CC(C)(C)C(=O)c2cc(OCCCCc3ccccc3)ccc21` (centres unmarked) [APA11], the Kd on PYL2 is 460 ± 90 nM; at PYR1, 59.4 ± 3.41 µM; at PYL10, 17.6 ± 2.11 µM; on PYL6 it was 900 ± 220 nM; at PYL3, 3.11 ± 0.4 µM.
For the compound `CC(=C/C(=O)O)/C=C/C1(O)CC(C)(C)C(=O)c2cc(OCCC(C)CC(C)(C)C)ccc21` (centres unmarked) [APA14], the Kd worked out at 110 ± 10 nM at PYL2; 60.8 ± 9.02 µM on PYR1; 45.5 ± 2.47 µM at PYL10; 2550 ± 460 nM at PYL6; 5.18 ± 0.84 µM on PYL3.
Take `CC(=C/C(=O)O)/C=C/C1(O)CC(C)(C)C(=O)c2cc(OCCC(C)CCCC(C)C)ccc21` (centres unmarked) [APA15]: the Kd at PYL2 turned out to be 2040 ± 290 nM; on PYR1 it was 37.9 ± 3.09 µM; on PYL10 it was 36.3 ± 2.18 µM; at PYL6, 1990 ± 320 nM; on PYL3, 7.95 ± 1.66 µM.
`CC(C)=CCCC(C)CCOc1ccc2c(c1)C(=O)C(C)(C)CC2(O)/C=C/C(C)=C\C(=O)O` (centres unmarked) [APA16]: the Kd on PYL2 amounted to 5840 ± 240 nM; on PYR1, 53.4 ± 4.71 µM; at PYL10 it was 65 ± 2.76 µM; at PYL6, 2100 ± 310 nM; at PYL3, 7.84 ± 0.95 µM.
The corresponding values for `CCOCCOc1ccc2c(c1)C(=O)C(C)(C)CC2(O)/C=C/C(C)=C\C(=O)O` (centres unmarked) [APA17] are 7070 ± 210 nM, 42.2 ± 6.71 µM, 23.9 ± 2.68 µM, 13100 ± 1460 nM and 19 ± 2.1 µM.
On to `COCCOCCOc1ccc2c(c1)C(=O)C(C)(C)CC2(O)/C=C/C(C)=C\C(=O)O` (centres unmarked) [APA18], for which the Kd turned out to be 140 ± 20 nM on PYL2; 73.9 ± 5.28 µM on PYR1; 37.5 ± 2.83 µM at PYL10; 4170 ± 930 nM at PYL6; 9.33 ± 1.39 µM on PYL3.
Regarding `CC1=CC(=O)CC(C)(C)[C@@]1(O)/C=C/C(C)=C\C(=O)O` [compound 1, ABA], the Kd at PYL2 is 16200 ± 4840 nM; on PYR1 it was 188 ± 29 µM; at PYL10, 152 ± 31 µM; on PYL6, 19500 ± 3920 nM.
Regarding iso-PhABA, the Kd came out at 7540 ± 2360 nM on PYL2 (setting [1]); 187 ± 22.3 µM at PYR1 (setting [1]); 92 ± 5.13 µM on PYL10 (setting [1]); 6770 ± 320 nM on PYL6 (setting [1]); 16.3 ± 2.78 µM on PYL3 (setting [1]).
